From US9833497B2, “Human originated EGF domain proteins and use of the same” (CHENGDU SOURCEBIO LIMITED-LIABILITY COMPANY, priority 2013, dated 2017)

Tests used:
Assay type in all cases: cell-based
Proteus vulgaris = assay: MIC against Gram-negative bacteria: Proteus vulgaris
Method in brief: (§1)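 LB broth cultures at McFarland 0.5, spun down, resuspended, diluted to 5×10^5 CFU/mL final. Two-fold serial dilutions of purified human EGF domain proteins, triplicate. 37° C, 175 rpm shaking. Endpoint: no visible growth.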

Proteus mirabilis = assay: MIC against Gram-negative bacteria: Proteus mirabilis
Method in brief: as §1

Citrobacter diversus = assay: MIC against Gram-negative bacteria: Citrobacter diversus
Method in brief: as §1

Pseudomonas aeruginosa = assay: MIC against Gram-negative bacteria: Pseudomonas aeruginosa
Method in brief: as §1

Moraxella catarrhalis = assay: MIC against Gram-negative bacteria: Moraxella catarrhalis
Method in brief: as §1

Enterobacter cloacae = assay: MIC against Gram-negative bacteria: Enterobacter cloacae
Method in brief: as §1

Klebsiella pneumonia = assay: MIC against Gram-negative bacteria: Klebsiella pneumonia
Method in brief: as §1

E. coli BL21 = assay: MIC against Gram-negative bacteria: E. coli BL21; conditions: for MIC (μg/mL) E. coli BL21 / MIC: E. coli BL21
Method in brief: as §1

E. coli DH5α = assay: Antibacterial activity: MIC and growth curve against E. coli DH5α in 96-well plate; conditions: minimal inhibitory concentration against E. coli DH5α; 96-well plate, 5×10^5 CFU/mL, 37° C., judged after 8 h
Method in brief: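 Log-phase DH5α (OD600 about 0.5, 37° C, 185 rpm in LB) was pelleted, resuspended in fresh LB and seeded at 5×10^5 CFU/mL with recombinant protein at 50, 25 and 12.5 μg/mL (two-fold series), in triplicate. Plates were shaken at 175 rpm, 37° C, and OD600 was read every 30 min. MIC was the lowest concentration with no growth.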

Serratia marcescens = assay: MIC against Gram-negative bacteria: Serratia marcescens
Method in brief: as §1

Aeromonas hydrophila = assay: MIC against Gram-negative bacteria: Aeromonas hydrophila
Method in brief: as §1

[1] = 96-well plate, 5×10^5 CFU/mL, 37° C., 10 h
[2] = P. vulgaris, 10 h cultivation at 37° C., 5×10^5 CFU/mL
[3] = P. mirabilis, 10 h cultivation at 37° C., 5×10^5 CFU/mL
[4] = C. diversus, 10 h cultivation at 37° C., 5×10^5 CFU/mL
[5] = P. aeruginosa, 10 h cultivation at 37° C., 5×10^5 CFU/mL
[6] = M. catarrhalis, 10 h cultivation at 37° C., 5×10^5 CFU/mL
[7] = E. cloacae, 10 h cultivation at 37° C., 5×10^5 CFU/mL
[8] = K. pneumonia, 10 h cultivation at 37° C., 5×10^5 CFU/mL
[9] = 10 h cultivation at 37° C., 5×10^5 CFU/mL
[10] = S. marcescens, 10 h cultivation at 37° C., 5×10^5 CFU/mL
[11] = A. hydrophila, 10 h cultivation at 37° C., 5×10^5 CFU/mL
[12] = P. vulgaris, 10 h cultivation at 37° C.
[13] = P. mirabilis, 10 h cultivation at 37° C.
[14] = C. diversus, 10 h cultivation at 37° C.
[15] = P. aeruginosa, 10 h cultivation at 37° C.
[16] = M. catarrhalis, 10 h cultivation at 37° C.
[17] = E. cloacae, 10 h cultivation at 37° C.
[18] = K. pneumonia, 10 h cultivation at 37° C.
[19] = S. marcescens, 10 h cultivation at 37° C.
[20] = A. hydrophila, 10 h cultivation at 37° C.

## PRT97 (DSRGCARWCPQNSSCVNATACRCNPGFSSFSEIITTPTETCD; listed as Homo sapiens)
Proteus vulgaris; Proteus vulgaris, 96-well plate, 5×10^5 CFU/mL, 37° C., 10 h
  MIC (μg/mL) P. vulgaris: 12.5 µg/mL
Proteus mirabilis; Proteus mirabilis, 96-well plate, 5×10^5 CFU/mL, 37° C., 10 h
  MIC (μg/mL) P. mirabilis: 50 µg/mL
Citrobacter diversus; Citrobacter diversus, 96-well plate, 5×10^5 CFU/mL, 37° C., 10 h
  MIC (μg/mL) C. diversus: 50 µg/mL
Pseudomonas aeruginosa; Pseudomonas aeruginosa, 96-well plate, 5×10^5 CFU/mL, 37° C., 10 h
  MIC (μg/mL) P. aeruginosa: 25 µg/mL
Moraxella catarrhalis; Moraxella catarrhalis, 96-well plate, 5×10^5 CFU/mL, 37° C., 10 h
  MIC (μg/mL) M. catarrhalis: 100 µg/mL
Enterobacter cloacae; Enterobacter cloacae, 96-well plate, 5×10^5 CFU/mL, 37° C., 10 h
  MIC (μg/mL) E. cloacae: 12.5 µg/mL
Klebsiella pneumonia; Klebsiella pneumonia, 96-well plate, 5×10^5 CFU/mL, 37° C., 10 h
  MIC (μg/mL) K. pneumonia: 12.5 µg/mL
E. coli BL21; [1]
  MIC (μg/mL) E. coli BL21: 12.5 µg/mL
E. coli DH5α
  MIC: 25 µg/mL
Serratia marcescens; Serratia marcescens, 96-well plate, 5×10^5 CFU/mL, 37° C., 10 h
  MIC (μg/mL) S. marcescens: 50 µg/mL
Aeromonas hydrophila; Aeromonas hydrophila, 96-well plate, 5×10^5 CFU/mL, 37° C., 10 h
  MIC (μg/mL) A. hydrophila: 12.5 µg/mL

## PRT251 (FSHLCLEDHNSYCINGACAFHHELEKAICRCFTGYTGERCE; listed as Homo sapiens)
Proteus vulgaris; [2]
  MIC (μg/mL) P. vulgaris: 12.5 µg/mL
Proteus mirabilis; [3]
  MIC (μg/mL) P. mirabilis: 12.5 µg/mL
Citrobacter diversus; [4]
  MIC (μg/mL) C. diversus: 25 µg/mL
Pseudomonas aeruginosa; [5]
  MIC (μg/mL) P. aeruginosa: 25 µg/mL
Moraxella catarrhalis; [6]
  MIC (μg/mL) M. catarrhalis: 12.5 µg/mL
Enterobacter cloacae; [7]
  MIC (μg/mL) E. cloacae: 25 µg/mL
Klebsiella pneumonia; [8]
  MIC (μg/mL) K. pneumonia: 12.5 µg/mL
E. coli BL21; [9]
  MIC (μg/mL) E. coli BL21: 12.5 µg/mL
E. coli DH5α
  MIC: 25 µg/mL
Serratia marcescens; [10]
  MIC (μg/mL) S. marcescens: 12.5 µg/mL
Aeromonas hydrophila; [11]
  MIC (μg/mL) A. hydrophila: 12.5 µg/mL

## PRT907 (PSVSCEVAAQRQGVDVARLCQHGGLCVDAGNTHHCRCQAGYTGSYCE; listed as Homo sapiens)
Proteus vulgaris; [12]
  MIC: 25 µg/mL
Proteus mirabilis; [13]
  MIC: 25 µg/mL
Citrobacter diversus; [14]
  MIC: 12.5 µg/mL
Pseudomonas aeruginosa; [15]
  MIC: 12.5 µg/mL
Moraxella catarrhalis; [16]
  MIC: 12.5 µg/mL
Enterobacter cloacae; [17]
  MIC: 12.5 µg/mL
Klebsiella pneumonia; [18]
  MIC: 25 µg/mL
E. coli BL21; 10 h cultivation at 37° C.
  MIC: 12.5 µg/mL
E. coli DH5α
  MIC: 25 µg/mL
Serratia marcescens; [19]
  MIC: 12.5 µg/mL
Aeromonas hydrophila; [20]
  MIC: 12.5 µg/mL

## PRT833 (CEANNGGCSHGCSHTSAGPLCTCPRGYELDTDQRTC; listed as Homo sapiens)
Proteus vulgaris; [2]
  MIC (μg/mL) P. vulgaris: 50 µg/mL
Proteus mirabilis; [3]
  MIC (μg/mL) P. mirabilis: 25 µg/mL
Citrobacter diversus; [4]
  MIC (μg/mL) C. diversus: 50 µg/mL
Pseudomonas aeruginosa; [5]
  MIC (μg/mL) P. aeruginosa: 12.5 µg/mL
Moraxella catarrhalis; [6]
  MIC (μg/mL) M. catarrhalis: 12.5 µg/mL
Enterobacter cloacae; [7]
  MIC (μg/mL) E. cloacae: 50 µg/mL
Klebsiella pneumonia; [8]
  MIC (μg/mL) K. pneumonia: 12.5 µg/mL
E. coli BL21; [9]
  MIC (μg/mL) E. coli BL21: 25 µg/mL
E. coli DH5α
  MIC: 12.5 µg/mL
Serratia marcescens; [10]
  MIC (μg/mL) S. marcescens: 12.5 µg/mL
Aeromonas hydrophila; [11]
  MIC (μg/mL) A. hydrophila: 12.5 µg/mL

## PRT510 (CDCFLPGTDATTCDSETKKCSCSDQTGQCTCKVNVEGIHCDRCRPGKFGLDAKNPLGCSS; listed as Homo sapiens)
Proteus vulgaris; [1]
  MIC against P. vulgaris: 25 µg/mL
Proteus mirabilis; [1]
  MIC against P. mirabilis: 50 µg/mL
Citrobacter diversus; [1]
  MIC against C. diversus: 12.5 µg/mL
Pseudomonas aeruginosa; [1]
  MIC against P. aeruginosa: 12.5 µg/mL
Moraxella catarrhalis; [1]
  MIC against M. catarrhalis: 25 µg/mL
Enterobacter cloacae; [1]
  MIC against E. cloacae: 50 µg/mL
Klebsiella pneumonia; [1]
  MIC against K. pneumonia: 25 µg/mL
E. coli BL21; [1]
  MIC against E. coli BL21: 25 µg/mL
E. coli DH5α
  MIC: 50 µg/mL
Serratia marcescens; [1]
  MIC against S. marcescens: 12.5 µg/mL
Aeromonas hydrophila; [1]
  MIC against A. hydrophila: 25 µg/mL

## PRT903 (DINECASDPCRNGANCTDCVDSYTCTCPAGFSGIHCE; listed as Homo sapiens)
Proteus vulgaris; [12]
  MIC: 50 µg/mL
Proteus mirabilis; [13]
  MIC: 25 µg/mL
Citrobacter diversus; [14]
  MIC: 50 µg/mL
Pseudomonas aeruginosa; [15]
  MIC: 12.5 µg/mL
Moraxella catarrhalis; [16]
  MIC: 12.5 µg/mL
Enterobacter cloacae; [17]
  MIC: 50 µg/mL
Klebsiella pneumonia; [18]
  MIC: 25 µg/mL
E. coli BL21; 10 h cultivation at 37° C.
  MIC: 50 µg/mL
E. coli DH5α
  MIC: 12.5 µg/mL
Serratia marcescens; [19]
  MIC: 12.5 µg/mL
Aeromonas hydrophila; [20]
  MIC: 12.5 µg/mL

## PRT836 (FGHDCSLTCDDCRNGGTCLLGLDGCDCPEGWTGLICN; listed as Homo sapiens)
Proteus vulgaris; [2]
  MIC (μg/mL) P. vulgaris: 25 µg/mL
Proteus mirabilis; [3]
  MIC (μg/mL) P. mirabilis: 25 µg/mL
Citrobacter diversus; [4]
  MIC (μg/mL) C. diversus: 25 µg/mL
Pseudomonas aeruginosa; [5]
  MIC (μg/mL) P. aeruginosa: 50 µg/mL
Moraxella catarrhalis; [6]
  MIC (μg/mL) M. catarrhalis: 12.5 µg/mL
Enterobacter cloacae; [7]
  MIC (μg/mL) E. cloacae: 50 µg/mL
Klebsiella pneumonia; [8]
  MIC (μg/mL) K. pneumonia: 12.5 µg/mL
E. coli BL21; [9]
  MIC (μg/mL) E. coli BL21: 12.5 µg/mL
E. coli DH5α
  MIC: 50 µg/mL
Serratia marcescens; [10]
  MIC (μg/mL) S. marcescens: 12.5 µg/mL
Aeromonas hydrophila; [11]
  MIC (μg/mL) A. hydrophila: 12.5 µg/mL
